Read-outs that look alike come from different tables or passages of the source. Where only a bound is given, the exact number is not on record here.

Data set [1] deals with HIV. The data set is described as follows: anti-HIV activity, inhibition of HIV-induced cytopathicity in MT-4 cells (MTT method). It counts as cell-based. The following applies: for EC50: HIV-infected MT-4 cells, MOI 0.01, 5 days, 37° C.; for S.I. (CC50/EC50): MT-4 cells, ratio of CC50 to EC50, 7200 min. On the procedure: A test compound having various concentrations were placed in a 96-well microtiter plate along with HIV-infected MT-4 cells (2.5×10^4 /well, MOI (multiplicity of infection): 0.01) immediately after infection thereof. In order to ascertain the cytotoxicty of the test compound with respect to MT-4 cells, mock-infected (non-infected) cells were cultured in an identical manner along with the test compound of various concentrations. After incubating for 5 days at 37° C. in a CO2 atmosphere, the number of living cells were determined by using MTT method. The anti-HIV activity was evaluated with the method written by R. Pauwels, et al. (R. Pauwels, et al., J. Virol Methods, 20, 309 to 321 (1988)).
The anti-HIV activity is shown in terms of EC50 (50% effective concentration) that is the concentration of a compound which inhibits 50% of HIV-induced cytopathicity in MT-4 cells, and the cytotoxity is shown in terms of CC50 (cytotoxic concentration) that is the concentration of a compound which reduces 50% of viability of mock-infected MT-4 cells. Selectivity Index (S.I.) is expressed by the ratio of CC50 to EC50 (CC50 /EC50).
In general terms: Cytopathic effects are the visible damage that an infection or toxin causes in cultured cells.

The next data set relates to MT-4 cells. Briefly: cytotoxicity in mock-infected MT-4 cells (MTT method). It counts as cell-based. The following applies: mock-infected MT-4 cells, 5 days, 37° C. On the procedure:
A test compound having various concentrations were placed in a 96-well microtiter plate along with HIV-infected MT-4 cells (2.5×10^4 /well, MOI (multiplicity of infection): 0.01) immediately after infection thereof. In order to ascertain the cytotoxicty of the test compound with respect to MT-4 cells, mock-infected (non-infected) cells were cultured in an identical manner along with the test compound of various concentrations. After incubating for 5 days at 37° C. in a CO2 atmosphere, the number of living cells were determined by using MTT method.
Selectivity Index (S.I.) is expressed by the ratio of CC50 to EC50 (CC50 /EC50).
A general note: Tetrazolium dyes change colour on reduction, which living cells bring about.

The test system of data set [2] is rabbit blood. Briefly: effects on blood clotting, whole blood clotting time. Conditions: for comparing strength of effects on blood clotting: at the concentration of more than 0.1%; for clotting time: rabbit whole blood.
Experimental: (§2) Sodium heparin (Kodama) used as positive control was diluted with saline at the concentration of 120 U/ml.
(§3) Japan White rabbits (supplier: Kitayama Labes), 4 months old, were used for this study.
(§4) Cardiopuncture was performed in a rabbit, and at when blood was started to be flowed into the syringe, the timer was made to start. The whole blood collected was carefully flowed into double glass tubes incubated. After putting the samples calmly for 3 minutes, the first tube was tilted gently every 30 seconds and the current of blood was observed. When blood in the first tube was clotted, the same operation was performed in the second tube. When the blood was clotted in the second tube, the timer was stopped, and this end point was recorded as whole blood clotting time.
The test system of data set [3] is HIV. Briefly: anti-HIV activity of serum after intravenous administration to mice. It counts as in vivo. Conditions: for reciprocal number of concentration of the compound at 50% cell viability / reciprocal number of concentration of dextran sulfate at 50% cell viability: mouse serum; for reciprocal number of concentration of the compound at 50% cell viability: 32 mg/kg; for detection/duration of activity in serum: mouse, i.v., Compound 6 32 mg/kg up to 12 hours, dextran sulfate 80 mg/kg up to 60 min; for reciprocal number of concentration of dextran sulfate at 50% cell viability: 80 mg/kg. On the procedure:
The effects of Compound 6 and dextran sulfate in vivo experiment were studied by duration of the activity using mouse.
Compound 6 were dissolved with saline at the concentration of 32 mg/10 ml. Dextran sulfate (Control compound: M.W=8000: Sigma) were dissolved with it at the concentration of 80 mg/10 ml.
(§1) Mouse (Crj:CD-1(ICR)) (supplier: Charles River Japan, Inc.), six weeks old were used for this study.
Four groups (for 1, 4, 6 and 12 hours) of mice (one group: three mice) were used for the in vivo experiments of the Compound 6.
The twelve mice were given an intravenous injection of the compound (in the tail vein; Dose 32 mg/kg).
Three groups (for 20, 40 and 60 minutes) of mice (one group: two mice) were used for dextran sulfate such a method as described in Compound 6 (Dose 80 mg/kg). At decided times after injection, the blood was collected and serum was separated by centrifugation at low speed.
The serum samples were stored at -80° C. until assayed. Each serum sample was diluted with culture medium to evaluate the effective concentration (the maximum concentration was set up to 10%). The method of this anti-HIV activity evaluation was the same one as described in EXAMPLE 49.
(*)Various concentration of the serum solutions (diluted with the medium
and the maximum concentration is 10%) were used for evaluation of the
shown. That is why the higher the reciprocal number, the higher the […]

The conditions of data set [4]: in vivo; cited from earlier work.
For data set [5], the system named is rabbit blood.
Experimental: as §2, §3, §4
Data set [6] has as its system HIV. Briefly: anti-HIV activity of serum after oral administration to mice. It counts as in vivo. Conditions: for reciprocal number of concentration at 50% cell viability: mouse serum. On the procedure: The effects of orally administration of Compound 1 in vivo experiment were studied by duration of the activity using mouse.
Compound 1 was dissolved with distilled water at the concentrations of 500 mg/10 ml and 1000 mg/10 ml.
as §1
Three groups (for 1, 2 and 3 hours) of mice (one group: three mice) were used for the in vivo experiments. Nine mice were given an orally administered of Compound 1 at a dose of 500 mg/kg or 1.0 g/kg.
At decided times after administration, the blood was collected and the serum was collected by centrifugation at low speed.
The serum samples were stored at -80° C. until assayed.
Each serum sample was diluted to evaluate the effective concentration with culture medium. The evaluation method was the same as described the section of Anti-HIV activity.

“Sulfated n-dodecyl O-2,4-difluorobenzoyl-β-D-laminaripentaoside [Compound 6]” registered an EC50 in the data set on HIV [1] of 1.8 µg/mL. Also, the “S.I. (CC50/EC50)” value in the data set with HIV [1] was above 556. Also, the CC50 in the data set on MT-4 cells was > 1,000 μg/ml. Moreover, the “comparing strength of effects on blood clotting” value (“comparing strength of effects” below) in the data set on rabbit blood [2] is recorded as “dextran sulfate>1>6”. Besides, the clotting time in the data set on rabbit blood [2] (0.01%) is listed as 7.4 ± 0.6 min; with rabbit blood [2] (0.1%), 7.4 ± 0.6 min; in the data set on rabbit blood [2] (1.0%) it was 21.1 ± 1.7 min. In addition, the “reciprocal number of concentration of the compound at 50% cell viability” value with HIV [3] (1 hour after i.v. injection) was 145; with HIV [3] (4 hours after i.v. injection), 94; in the data set with HIV [3] (6 hours after i.v. injection), 60; in the data set with HIV [3] (12 hours after i.v. injection), 48. Further, the “detection/duration of activity in serum” value in the data set with HIV [3] was “detected at a high concentration”.
Turning to dextran sulfate, in data set [4], the “absorption after oral administration” value is recorded as “poorly absorbed”. The “reciprocal number of concentration of dextran sulfate at 50% cell viability” value in the data set on HIV [3] (20 min after i.v. injection), with HIV [3] (40 min after i.v. injection) and in the data set on HIV [3] (60 min after i.v. injection) was below 10 in each case. Besides, the “detection/duration of activity in serum” value in the data set on HIV [3] is “could not be detected”. The “comparing strength of effects” value with rabbit blood [5] was “dextran sulfate>1>6”.
In the case of “Sulfated n-dodecyl O-benzoyl-β-D-laminaripentaoside [Compound 1]”, the “reciprocal number of concentration at 50% cell viability” value with HIV [6] (1 hour after oral administration, 500 mg/kg) is reported as 15.9; in the data set on HIV [6] (1 hour after oral administration, 1.0 g/kg), 55.6; in the data set with HIV [6] (2 hours after oral administration, 500 mg/kg) it was 19.2; with HIV [6] (2 hours after oral administration, 1.0 g/kg), 83.8; with HIV [6] (3 hours after oral administration, 500 mg/kg), 26.7; in the data set with HIV [6] (3 hours after oral administration, 1.0 g/kg), 54.1. Moreover, the “detection of activity in serum after oral administration” value with HIV [6] (mouse, oral, 500 mg/kg or 1.0 g/kg) is on record as “detected at a high concentration”. The substance further came in with a concentration giving a half-maximal response (EC50) in the data set on HIV [1] of 3.2 µg/mL. In addition, the “S.I. (CC50/EC50)” value in the data set on HIV [1] is listed as 254. In the data set with MT-4 cells (7200 min), this substance gave a CC50 of 814 µg/mL. Also, the “comparing strength of effects” value with rabbit blood [2] is reported as “dextran sulfate>1>6”. The clotting time in the data set on rabbit blood [2] (0.01%) is listed as 8.0 ± 0.5 min; with rabbit blood [2] (0.1%), 8.3 ± 0.7 min; in the data set with rabbit blood [2] (1.0%), 27.3 ± 3.0 min.

A word on the EC50: it is the concentration needed to bring the measured effect to its halfway point. The CC50 is the concentration giving 50% cytotoxicity. A low value points to greater toxicity to the cells.
